Measured values from PMC7228038 (Journal of medicinal chemistry, 2019).

Columns and labels:
DCN1-UBE2M interaction = DCN1-UBE2M interaction (Homo sapiens, UniProt Q96GG9); test: biochemical; type: binding; details: for Activity in TR-FRET binding assay, in words: maximum tested concentration 15 μM, values in Supplementary Tables
[1] = Oxidative metabolic stability in murine microsomes; details: for CLint scaled at 0.8 µM: mouse, microsomes
HCC95 cells = details: dose-response up to 30 μM, 5 hours
DCN4 = target: T1, DCN4 (Homo sapiens, UniProt Q92564); test: Pulse-chase assay of NEDD8 transfer, DCN4 stimulated; type: biochemical; details: 10 μM; NEDD8 transfer from UBE2M to CUL2
T1 sequence (Q92564 1-292): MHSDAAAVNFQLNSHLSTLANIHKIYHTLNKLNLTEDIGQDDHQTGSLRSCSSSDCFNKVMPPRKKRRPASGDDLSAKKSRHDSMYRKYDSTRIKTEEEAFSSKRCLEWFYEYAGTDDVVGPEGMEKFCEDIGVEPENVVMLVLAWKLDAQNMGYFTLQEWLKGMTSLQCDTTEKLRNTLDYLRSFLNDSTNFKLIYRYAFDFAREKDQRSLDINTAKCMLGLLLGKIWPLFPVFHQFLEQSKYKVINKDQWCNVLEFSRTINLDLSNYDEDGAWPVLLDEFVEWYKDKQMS

DCN2 = DCN2 (Homo sapiens, UniProt Q6PH85); test: Pulse-chase assay of NEDD8 transfer, DCN2 stimulated; type: biochemical; details: 10 μM; NEDD8 transfer from UBE2M to CUL2
DCN5 = target: T2, DCN5 (Homo sapiens, UniProt Q9BTE7); test: Pulse-chase assay of NEDD8 transfer, DCN5 stimulated; type: biochemical; details: 10 μM; NEDD8 transfer from UBE2M to CUL2
T2 sequence (Q9BTE7 1-237): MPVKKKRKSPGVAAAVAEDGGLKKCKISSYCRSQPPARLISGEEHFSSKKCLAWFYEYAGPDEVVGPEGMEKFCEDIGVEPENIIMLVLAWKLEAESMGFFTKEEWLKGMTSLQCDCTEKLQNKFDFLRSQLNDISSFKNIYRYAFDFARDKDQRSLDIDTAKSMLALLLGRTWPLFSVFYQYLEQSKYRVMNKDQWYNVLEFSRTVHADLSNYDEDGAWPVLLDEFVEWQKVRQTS

DCN3 = target: T3, DCN3 (Homo sapiens, UniProt Q8IWE4); test: Pulse-chase assay of NEDD8 transfer, DCN3 stimulated; type: biochemical; details: 10 μM; NEDD8 transfer from UBE2M to CUL2
T3 sequence (Q8IWE4 1-304): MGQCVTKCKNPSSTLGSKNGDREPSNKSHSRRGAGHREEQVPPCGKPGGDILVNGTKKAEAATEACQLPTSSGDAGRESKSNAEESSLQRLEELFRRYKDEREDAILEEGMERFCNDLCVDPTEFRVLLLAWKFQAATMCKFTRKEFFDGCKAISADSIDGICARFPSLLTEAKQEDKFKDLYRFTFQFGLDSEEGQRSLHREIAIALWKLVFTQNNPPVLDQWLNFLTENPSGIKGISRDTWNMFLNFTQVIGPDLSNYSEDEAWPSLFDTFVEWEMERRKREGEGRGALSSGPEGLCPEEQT

[2] = system: cullin neddylation in CAL33 cells; details: 10 μM (MLN4924 1 μM), 48 hours, most pronounced on CUL1 and CUL3
[3] = system: cullin neddylation in HCC95 cells; details: 10 μM (MLN4924 1 μM), 48 hours, most pronounced on CUL1 and CUL3

Sequence of DCN1-UBE2M interaction (Q96GG9 whole entry): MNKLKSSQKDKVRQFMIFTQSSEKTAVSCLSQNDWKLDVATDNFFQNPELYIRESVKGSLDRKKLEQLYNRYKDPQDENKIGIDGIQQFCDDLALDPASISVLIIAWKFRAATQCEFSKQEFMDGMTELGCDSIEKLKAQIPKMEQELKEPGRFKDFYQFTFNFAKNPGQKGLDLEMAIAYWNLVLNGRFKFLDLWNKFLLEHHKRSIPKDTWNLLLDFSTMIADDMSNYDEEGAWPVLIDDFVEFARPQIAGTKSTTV
Sequence of DCN2 (Q6PH85 whole entry): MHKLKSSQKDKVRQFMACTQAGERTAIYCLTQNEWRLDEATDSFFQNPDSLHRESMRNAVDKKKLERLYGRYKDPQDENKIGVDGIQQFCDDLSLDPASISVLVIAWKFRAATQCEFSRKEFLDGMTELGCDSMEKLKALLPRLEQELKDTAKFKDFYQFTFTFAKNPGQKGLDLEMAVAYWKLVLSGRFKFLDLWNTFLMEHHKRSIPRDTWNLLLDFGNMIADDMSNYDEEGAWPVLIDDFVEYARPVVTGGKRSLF

With `Cc1nn(-c2ccccc2)c2c1[C@H](c1ccc(F)cc1)[C@H](C(=O)Nc1ccc(Cl)c(Cl)c1)C(=O)N2` [Compound 131] the “Activity in TR-FRET binding assay, in words” value (from here on “Activity”) (DCN1-UBE2M interaction) was “not tolerated”.
In the case of `Cc1cccc(C(=O)N[C@@H]2C(=O)Nc3c(c(C)nn3-c3ccccc3)[C@@H]2c2ccc(F)cc2)c1` (racemic) [Compound 3], the CLint scaled at 0.8 µM [1] is reported as 50.3 ± 5 mL/min/kg and the “Murine microsomal stability compared with that previously reported for NAcM-OPT” value ([1]; murine microsomes, relative to NAcM-OPT) is reported as no more than 2 fold.
`Cc1nn(-c2ccccc2)c2c1[C@H](c1ccc(F)cc1)[C@H](NC(=O)c1cccc(C(F)(F)F)c1)C(=O)N2` [Compound 11] gave an IC50 (DCN1-UBE2M interaction) of 3.5 ± 0.5 µM.
With `CCCCN1CCC(N(Cc2ccccc2)C(=O)Nc2ccc(Cl)c(Cl)c2)CC1` [NAcM-OPT, reference compound] the “Effect on reactive oxygen species (DCFDA)” value (HCC95 cells) was “neither 27, 87, nor NAcM-OPT have any measurable effects on reactive oxygen species”.
For `Cc1cccc(C(=O)N[C@H]2C(=O)Nc3c(c(C)nn3-c3ccccc3)[C@@H]2c2ccc(F)cc2)c1` (racemic) [Compound 87, N-((4S,5R)-4-(4-fluorophenyl)-3-methyl-6-oxo-1-phenyl-4,5,6,7-tetrahydro-1H-pyrazolo[3,4-b]pyridin-5-yl)-3-methylbenzamide], the “Effect on reactive oxygen species (DCFDA)” value (HCC95 cells) was “neither 27, 87, nor NAcM-OPT have any measurable effects on reactive oxygen species” and the “Activity” value (DCN1-UBE2M interaction) was “inactive”.
In the case of `CCn1nc(C)c2c1NC(=O)[C@@H](NC(=O)c1cccc(C)c1)[C@H]2c1ccc(F)cc1` (racemic) [Compound 65], the CLint scaled at 0.8 µM [1] is reported as 89.7 ± 4.7 mL/min/kg and the “Activity” value (DCN1-UBE2M interaction) is reported as “roughly equipotent to the phenyl derivative (3)”.
For `CCN1C(=O)[C@@H](NC(=O)c2cccc(C)c2)[C@@H](c2ccc(F)cc2)c2c(C)nn(-c3ccccc3)c21` (relative stereo) [Compound 27, N-(rel-(4S,5S)-7-ethyl-4-(4-fluorophenyl)-3-methyl-6-oxo-1-phenyl-4,5,6,7-tetrahydro-1H-pyrazolo[3,4-b]pyridin-5-yl)-3-methylbenzamide], the “Inhibition of DCN4 stimulated cullin neddylation (pulse-chase)” value (DCN4) was “not inhibited”, the “Inhibition of DCN2 stimulated cullin neddylation (pulse-chase)” value (DCN2) was “inhibiting” and the “Inhibition of DCN5 stimulated cullin neddylation (pulse-chase)” value (DCN5) was “not inhibited”. For the same molecule, the CLint scaled at 0.8 µM [1] was 44.9 ± 3.7 mL/min/kg and the “Inhibition of DCN3 stimulated cullin neddylation (pulse-chase)” value (DCN3) was “not inhibited”.
For `Cc1cccc(C(=O)N[C@@H]2C(=O)Nc3c(c(C)nn3C3CCCC3)[C@@H]2c2ccc(F)cc2)c1` (racemic) [Compound 24], the CLint scaled at 0.8 µM [1] was 116 ± 10.7 mL/min/kg.
For `NS(=O)(=O)OC[C@@H]1C[C@@H](n2ccc3c(N[C@H]4CCc5ccccc54)ncnc32)C[C@@H]1O` [MLN4924], the “Inhibition of steady-state cullin neddylation (immunoblot), CAL33” value [2] was “complete blockade of neddylation” and the “Inhibition of steady-state cullin neddylation (immunoblot), HCC95” value [3] was “complete blockade of neddylation”.
In the case of `Cc1cccc(NC(=O)[C@@H]2C(=O)Nc3c(c(C)nn3-c3ccccc3)[C@@H]2c2ccc(F)cc2)c1` [Compound 128], the “Activity” value (DCN1-UBE2M interaction) is reported as “not tolerated”.
Molecule `Cc1ccc([C@H]2c3c(C)nn(-c4ccccc4)c3NC(=O)[C@H]2NC(=O)c2cccc(C)c2)cc1` (relative stereo) [Compound 1, 3-methyl-N-(rel-(4S,5S)-3-methyl-6-oxo-1-phenyl-4-(p-tolyl)-4,5,6,7-tetrahydro-1H-pyrazolo[3,4-b]pyridin-5-yl)benzamide] has a CLint scaled at 0.8 µM [1] of 160 ± 5 mL/min/kg.
